Results: patent publication US6376488B1, “Benzoxazine α-1 adrenergic compounds” (Abbott Laboratories, priority 2000, dated 2002)
Structures can show the parent of a compound that is named as a salt.

How the values were obtained:
α1d (rat) adrenoreceptor = target: T1, α1d (rat) adrenoreceptor (Rattus norvegicus, UniProt P23944); experiment: [3H]-prazosin radioligand binding, cloned α1d (rat) adrenoreceptor in LTK cells; details: cloned receptor in LTK cell membranes, [3H]prazosin 0.2 nM
T1 sequence (P23944 1-561): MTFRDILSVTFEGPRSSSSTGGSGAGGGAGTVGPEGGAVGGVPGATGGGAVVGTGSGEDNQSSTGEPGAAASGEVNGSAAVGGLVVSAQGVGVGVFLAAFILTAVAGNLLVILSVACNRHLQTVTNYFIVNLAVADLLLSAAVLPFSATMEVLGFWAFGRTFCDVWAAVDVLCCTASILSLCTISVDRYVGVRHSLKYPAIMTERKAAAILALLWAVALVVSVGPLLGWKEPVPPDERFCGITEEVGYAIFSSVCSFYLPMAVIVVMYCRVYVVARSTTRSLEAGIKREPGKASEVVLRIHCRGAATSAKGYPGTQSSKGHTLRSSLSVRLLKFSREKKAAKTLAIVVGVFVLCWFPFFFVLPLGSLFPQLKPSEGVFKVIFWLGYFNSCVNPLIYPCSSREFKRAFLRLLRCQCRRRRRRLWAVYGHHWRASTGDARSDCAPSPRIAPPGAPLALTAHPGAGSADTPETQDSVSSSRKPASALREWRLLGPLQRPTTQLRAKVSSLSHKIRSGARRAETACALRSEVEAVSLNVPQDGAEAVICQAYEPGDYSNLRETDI
Description: (§1) Representative compounds of the invention were evaluated for α adrenoreceptor binding affinity in vitro using [^3H]-prazosin as the radioligand and following four cloned α1, adrenoreceptors expressed in LTK cells: α1a (rat), α1a (bovine), α1b : (hampster), and α1d (rat).
(§2) The cDNA clones encoding the α1, adrenoreceptors were obtained from TULCO (Triangle Universities Licensing Consortium, Research Triangle Park, N.C.) and inserted into the eukaryotic expression vector SnaB30. In this vector, expression of the adrenoreceptor gene is under the transcriptional control of an SV40 early promoter. Positive drug selection is provided by a neomycin-resistance gene. Mouse fibroblast cells (LTK) were transfected with the α1 expression plasmids and grown in Dulbecco's modified Eagle's medium (DMEM) containing 10% fetal calf serum and 30 μM G418. Stable G418-resistant parental lines were generated with successful expression of adrenoreceptor protein monitored using radioligand binding techniques. Stable single cell clones derived from the parental lines were screened in adrenoreceptor binding assays to identify clones having high adrenoreceptor density. Roller bottle cultures of the cloned lines were used to provide cell membranes for subsequent adrenoreceptor binding characterization studies. A cell line containing the SnaB30 vector expressing the human erythropoietin gene served as a negative control.
(§3) For adrenoreceptor binding assays, large scale membrane preparations were utilized in which 6 million cells were seeded into small (450 cm^2) Coming tissue culture roller bottles. DMEM (200 mL) containing 10% fetal calf serum and 300 μM G418 were added to each roller bottle. A 95% air/5% CO2 gas mixture (sterile) was injected into each roller bottle prior to sealing, and the bottles were then incubated at 37° C. on a roller rack for 5 days. Cells were refed with fresh medium after 3 days in culture.
(§4) On the fifth day of culture, growth medium was removed from cells grown in roller bottles, and the cells were washed twice with PBS (Sigma, 120 mM NaCl, 2.7 mM KCl, 10 mM Na2HPO4-NaH2PO4, pH=7.4). Cells were detached from the roller bottles by incubating for 15 minutes at 37° C. in a Tris-EDTA solution (10 mM Tris, 100 mM NaCl, 1 mM EDTA, pH=7.4). The cell suspension from each roller bottle was decanted into tared centrifuge tubes and kept on ice. An aliquot of each cell suspension was generally taken for cell counting. Cells were centrifuged at 3000×G for 5 minutes at 2-4° C., washed with PBS and recentrifuged. The supernatant was decanted, and the pellet was weighed to determine the wet weight of cells. Cells were washed a final time in 40 vol 5 mM Tris-HCl, 5 mM EDTA, pH=7.7 and centrifuged at 40,000×G for 10 minutes (“vol” indicates volume/weight, e.g., a “vol” of 40 would indicate that the one gram of cells were washed with 40 mls of buffer). Cells were homogenized in of 50 mM Tris-HCl, 5 mM EDTA (pH=7.4) (10 mL) and diluted to 40 mL/tube. Homogenates were centrifuged at 40,000×G for 10 minutes. The supernatant was decanted and the pellets rehomogenized in 50 mM Tris-HCl (pH=7.4) and centrifuged as before. The supernatant was decanted and the homogenate was resuspended in 6.25 volumes (per gram wet weight) of 50 mM Tris-HCl and aliquots of the pooled homogenates frozen in liquid N2 and,stored at −70° C. until the time of assay.
(§5) Receptor binding assays for α1 adrenoreceptors were performed essentially as described by Greengrass and Bremner (Eur. J. Pharmacol. 55: 323-326 (1979)). […] Following equilibration, bound radioligand was separated from free on GF/B filters (presoaked in 0.5% polyethyleneimine) using ither a Brandel or Packard cell harvester. Radioactivity was determined by standard liquid scintillation techniques. Data were analyzed as previously described (Hancock, A. A., Kyncl, J. J., Martin, Y. C. and DeBemardis, J. F., J. Receptor Res. 8: 23-46 (1988)). The in Table 1.

[1] = target: T2, α1a (bovine) adrenoreceptor (Bos taurus, UniProt P18130); experiment: [3H]-prazosin radioligand binding, cloned α1a (bovine) adrenoreceptor in LTK cells; details: cloned receptor in LTK cell membranes, [3H]prazosin 0.2 nM
T2 sequence (P18130 1-466): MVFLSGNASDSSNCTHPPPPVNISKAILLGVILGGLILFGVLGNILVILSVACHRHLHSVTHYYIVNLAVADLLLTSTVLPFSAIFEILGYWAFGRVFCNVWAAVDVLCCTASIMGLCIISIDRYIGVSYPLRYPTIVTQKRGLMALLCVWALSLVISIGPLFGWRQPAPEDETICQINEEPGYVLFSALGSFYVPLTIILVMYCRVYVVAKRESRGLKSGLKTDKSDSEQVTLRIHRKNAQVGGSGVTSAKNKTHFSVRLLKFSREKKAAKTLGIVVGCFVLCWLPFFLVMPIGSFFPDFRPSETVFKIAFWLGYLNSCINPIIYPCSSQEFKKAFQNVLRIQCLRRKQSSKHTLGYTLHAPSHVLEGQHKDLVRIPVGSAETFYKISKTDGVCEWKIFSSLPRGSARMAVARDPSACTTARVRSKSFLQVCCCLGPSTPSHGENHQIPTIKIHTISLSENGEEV
Description: as §1, §2, §3, §4, §5

Compound	Ki (α1d (rat) adrenoreceptor)	Ki [1]
COc1cccc2c1N1CCN(CCn3c(=O)[nH]c4c(sc5ncc(Cl)nc54)c3=O)CC1CO2.Cl.Cl (single isomer, unassigned; (+)) [Example 8, (+) 3-[2-(10-methoxy-1,2,4a,5-tetrahydropyrazino[2,1-c][1,4]benzoxazin-3(4H)-yl)ethyl]-8-chloropyrazino[2′,3′:4,5]thieno[3,2-d]pyrimidine-2,4(1H,3H)-dione dihydrochloride]	5.08 nM	0.463 nM
O=c1[nH]c2c(sc3cccnc32)c(=O)n1CCCCN1CCN2c3ccccc3OCC2C1 (single isomer, unassigned; (-)) [Example 4, (−) 3-[4-(1.2,4a,5-tetrahydropyrazino[2,1-c][1,4benzoxazin-3(4H)-yl)butyl]pyrido[2′,3′:4,5]thieno[3,2-d]pyrimidine-2,4(1H,3H)-dione dihydrochloride]	19.5 nM	3.6 nM
COc1cccc2c1N1CCN(CCCCn3c(=O)[nH]c4c(sc5ncc(Cl)nc54)c3=O)CC1CO2.Cl.Cl (single isomer, unassigned; (-)) [Example 12, (−) 3-[4-(10-methoxy-1,2,4a,5-tetrahydropyrazino[2,1-c][1,4]benzoxazin-3(4H)-yl)butyl]-8-chloropyrazino[2′,3′:4,5]thieno[3,2-d]pyrimidine-2,4(1H,3H)-dione dihydrochloride]	1.15 nM	0.41 nM
COc1cccc2c1N1CCN(CCCn3c(=O)[nH]c4c(sc5cccnc54)c3=O)CC1CO2.Cl.Cl.Cl (single isomer, unassigned; (+)) [Example 17, (+) 3-[3-(10-methoxy-1,2,4a,5-tetrahydropyrazino[2,1-c][1,4]benzoxazin-3(4H)-yl)propyl]pyrido[2′,3′:4,5]thieno[3,2-d]pyrimidine-2,4(1H,3H)-dione trihydrochloride]	20.5 nM	2.5 nM
COc1cccc2c1N1CCN(CCn3c(=O)[nH]c4c(sc5ncc(Cl)nc54)c3=O)CC1CO2.Cl.Cl (single isomer, unassigned; (-)) [Example 13, (−) 3-[2-(10-methoxy-1,2,4a,5-tetrahydropyrazino[2,1-c][1,4]benzoxazin-3(4H)-yl)ethyl]-8-chloropyrazino[2′,3′:4,5]thieno[3,2-d]pyrimidine-2,4(1H,3H)-dione dihydrochloride]	3.52 nM	0.685 nM
Cl.Cl.O=c1[nH]c2c(sc3cccnc32)c(=O)n1CCCCN1CCN2c3ccccc3OCC2C1 (single isomer, unassigned; (+)) [Example 3, (+) 3-[4-(1,2,4a,5-tetrahydropyrazino[2,1-c][1,4]benzoxazin-3(4H)-yl)butyl]pyrido[2′, 3′:4,5]thieno[3,2-d]pyrimidine-2,4(1H,3H)-dione dihydrochloride]	5 nM	2.09 nM
Cl.Cl.O=c1[nH]c2c(sc3ncccc32)c(=O)n1CCCCN1CCN2c3ccccc3OCC2C1 (single isomer, unassigned; (-)) [Example 6, (−) 3-[4-(1,2,4a,5-tetrahydropyrazino[2,1-c][1,4]benzoxazin-3(4H)-yl)butyl]pyrido[3′, 2′:4,5]thieno[3,2-d]pyrimidine-2,4(1H,3H)-dione dihydrochloride]	16.9 nM	5.51 nM
COc1cccc2c1N1CCN(CCCCn3c(=O)[nH]c4c(sc5ncccc54)c3=O)CC1CO2 (single isomer, unassigned; (-)) [Example 11, (−) 3-[4-(10-methoxy-1,2,4a,5-tetrahydropyrazino[2,1-c][1,4]benzoxazin-3(4H)-yl)butyl]pyrido[3′,2′:4.5]thieno[3,2-d]pyrimidine-2,4(1H,3H)-dione trihydrochloride]	0.427 nM	0.387 nM
COc1cccc2c1N1CCN(CCn3c(=O)[nH]c4c(sc5cccnc54)c3=O)CC1CO2.Cl.Cl (single isomer, unassigned; (-)) [Example 7, (−) 3-[2-(10methoxy-1,2,4a,5-tetrahydropyrazino[2,1-c][1,4]benzoxazin-3(4H)-yl)ethyl]pyrido[2′,3′:4,5]thieno[3,2-d]pyrimidine-2,4(1H,3H)-dione dihydrochloride]	1.13 nM	0.251 nM
Cl.Cl.O=c1[nH]c2c(sc3cccnc32)c(=O)n1CCCN1CCN2c3ccccc3OCC2C1 (single isomer, unassigned; (+)) [Example 1, (+) 3-[3-(1,2,4a,5-tetrahydropyrazino[2,1-c][1,4]benzoxazin-3(4H)-yl)propyl]pyrido[2′,3′:4,5]thieno[3,2-d]pyrimidine-2,4(1H,3H)-dione dihydrochloride]	5.89 nM	1.18 nM
COc1cccc2c1N1CCN(CCCCn3c(=O)[nH]c4c(sc5cccnc54)c3=O)CC1CO2 (single isomer, unassigned; (+)) [Example 14, (+) 3-[4-(10-methoxy-1,2,4a,5-tetrahydropyrazino[2,1-c][1,4]benzoxazin-3(4H)-yl)butyl]pyido [2′,3′:4,5]thieno[3,2-d]pyrimidine-2,4(1H,3H)-dione trihydrochloride]	2.16 nM	0.243 nM
(−) 3-[3-(10-methoxy-1,2,4a,5-tetrahydropyrazino[2,1-c][1,4]benzoxazin-3(4H)-yl)butyl]pyrido[2′,3′:4,5]thieno[3,2-d]pyrimidine-2,4(1H,3H)-dione trihydrochloride [Example 10]	0.344 nM	0.243 nM
O=c1[nH]c2c(sc3cccnc32)c(=O)n1CCCN1CCN2c3ccccc3OCC2C1 (single isomer, unassigned; (-)) [Example 2, (−) 3-[3-(1,2,4a,5-tetrahydropyrazino[2,1-c][1,4]benzoxazin-3(4H)-yl)propyl]pyrido[2′,3′:4,5]thieno[3,2-d]pyrimidine-2,4(1H,3H)-dione dihydrochloride]	69.8 nM	13.8 nM
